Patent publication US4159328A, “Tetrahydro-1,3,5-thiadiazin-4-one derivative” (Nihon Nohyaku Co., Ltd., priority 1977, dated 1979)

Legend:
Format in all cases: in vivo
[1] = tested on: two-spotted spider mite (Tetranychus urticae Koch); assay: Test Example 3: activity to two-spotted spider mite; settings: 120 h, 1,000 ppm, 5 days after treatment
Description: Activity to two-spotted spider mite (Tetranychus urticae Koch).
Testing method: Two-spotted spider mites were set free on the pot-planted soybean in a greenhouse. On the next day, a test composition of 1,000 ppm concentration was sprayed over the soybean by means of a spray gun. Two days or five days after the treatment, dead-and-survival was inspected to calculate the mortality.

[2] = tested on: larvae of house mosquito (Culex pipiens pallens Coquillett); assay: Test Example 6: insecticidal activity to larvae of house mosquito; settings: 120 h
Description: Insecticidal activity to larvae of house mosquito (Culex pipiens pallens Coquillett).
Test method: In a 200-ml beaker, was placed together with a feed 100 ml of a test composition diluted with deionized water to 10 ppm concentration. The test composition was infested with 20 first-instar larvae of house mosquito and the beaker was covered with a sheet of Japanese paper. The beaker was kept in a constant temperature cabinet at 25° C. Five days after the treatment, the dead-and-survival was inspected to calculate the mortality.

[3] = tested on: larvae of brown planthopper (Nilaparvata lugens Stahl); assay: Test Example 1: insecticidal activity against larvae of brown planthopper; settings: 120 h, third-instar larvae, 25° C., 5 days after treatment
Description: Insecticidal activity against larvae of brown planthopper (Nilaparvata lugens Stahl).
(§1) Testing method: Five rice seedlings of the 1.5 leaf age were dipped in a test composition of 400 ppm concentration for 30 seconds. After air-drying, the seedlings were placed in a glass tube containing 1 ml of water and infested with five third-instar larvae of brown planthopper. The glass tube was left standing in a constant temperature cabinet at 25° C. and 5 or 7 days after the treatment, dead-and-survival was observed. Mortality was calculated from the results of 3-replication test.

[4] = tested on: larvae of green rice leafhopper (Nephotettix cincticeps Uhler); assay: Test Example 5: activity against larvae of green rice leafhopper; settings: 168 h, 400 ppm, second-instar larvae, 25° C., seven days after treatment, read-out: Mortality
Description: Activity against larvae of green rice leafhopper (Nephotettix cincticeps Uhler).
Testing method: Five rice seedlings of the 1.5 leaf age were dipped in a test composition of 400 ppm concentration for 30 seconds. After air-drying, the seedlings were placed in a glass tube containing 1 ml of water and infested with five second-instar larvae of green rice leafhopper. The glass tube was left standing in a constant temperature cabinet at 25° C. Seven days after the treatment, dead-and-survivalwas inspected to calculate the mortality (3-replication test).

[5] = tested on: larvae of white-backed planthopper (Sogatella furcifera Horvath); assay: Test Example 2: insecticidal activity against larvae of white-backed planthopper; settings: 168 h, 400 ppm, first-instar larvae, 25° C., seven days after treatment, read-out: Mortality
Description: Insecticidal activity against larvae of white-backed planthopper (Sogatella furcifera Horvath).
as §1, with “first-instar” for “third-instar”, “white-backed” for “brown”, “seven” for “5 or 7”

SMILES | mortality at 1000 ppm [1] [%] | mortality at 10 ppm [2] [%] | mortality at 400 ppm [3] [%] | mortality at 400 ppm [4] [%] | mortality at 400 ppm [5] [%]
CCC(C)N=C1SCN(c2ccccc2Cl)C(=O)N1C(C)CC (stereo not drawn) [Compound 248] | 100 | 90 | 100 | 100 | 
CC(C)N1C(=O)N(c2ccccc2Cl)CSC1=NC(C)(C)CC(C)(C)C [Compound 247] | 70 | 100 | 90 |  | 
CCc1cccc(CC)c1N1CSC(=NC(C)C)N(C(C)C)C1=O [Compound 395, 2-Isopropylimino-3-isopropyl-5-(2,6-diethylphenyl)-tetrahydro-1,3,5-thiadiazin-4-one] | 80 | 100 | 100 | 100 | 90
Cc1ccc(N2CSC(=NCc3ccccc3)N(Cc3ccccc3)C2=O)cc1 [Compound 321, 2-Benzylimino-3-benzyl-5-(p-tolyl)-tetrahydro-1,3,5-thiadiazin-4-one] | 70 | 70 | 85 |  | 
C=CCN1C(=O)N(c2ccc(C)cc2)CSC1=NC(C)C [Compound 315] | 100 | 100 | 100 |  | 
CCCN1C(=O)N(c2ccc(C)cc2)CSC1=NC(C)(C)C [Compound 317] | 100 | 100 | 100 |  | 
CC(C)N1C(=O)N(c2cccc(C(F)(F)F)c2)CSC1=NC(C)(C)C [Compound 270] | 70 | 100 | 60 |  | 
Cc1ccccc1N1CSC(=NC2CCCCC2)N(C2CCCCC2)C1=O [Compound 307, 2-cyclohexylimino-3-cyclohexyl-5-(o-tolyl)-tetrahydro-1,3,5-thiadiazin-4-one] | 70 | 100 | 70 |  | 
CCN1C(=O)N(c2ccc(C)cc2)CSC1=NC(C)(C)C [Compound 312] | 100 | 100 | 100 |  | 
CC(C)N=C1SCN(c2ccc(Cl)cc2)C(=O)N1C(C)C [Compound 194] | 100 | 80 | 100 | 100 | 
CCN=C1SCN(c2ccccc2)C(=O)N1CC [Compound 125] |  | 80 |  |  | 
CC(C)N=C1SCN(c2cccc(C(F)(F)F)c2)C(=O)N1C(C)C [Compound 265, 2-Isopropylimino-3-isopropyl-5-(m-trifluoromethylphenyl)-tetrahydro-1,3,5-thiadiazin-4-one] |  | 100 |  |  | 
CC(C)N=C1SCN(c2cccc(C(F)(F)F)c2)C(=O)N1C [Compound 259] | 100 | 100 | 60 |  | 
CC(C)N1C(=O)N(c2ccc(F)cc2)CSC1=NC(C)(C)C [Compound 282, 2-t-butylimino-3-isopropyl 5-(p-fluorophenyl)-tetrahydro-1,3,5-thiadiazin-4-one] | 80 | 90 | 100 | 100 | 100
CCN1C(=O)N(c2ccc(F)cc2)CSC1=NC(C)(C)C [Compound 280] | 80 | 90 | 100 |  | 
CCC(C)N=C1SCN(c2cccc(C(F)(F)F)c2)C(=O)N1C(C)C (stereo not drawn) [Compound 269] |  | 100 | 80 |  | 
CCC(C)N=C1SCN(c2ccc(Cl)cc2)C(=O)N1C(C)CC (stereo not drawn) [Compound 197] | 80 | 100 | 100 |  | 90
COCCCN1C(=O)N(c2ccccc2Cl)CSC1=NC(C)(C)C [Compound 258] | 100 |  | 100 |  | 
Cc1cccc(N2CSC(=NC(C)(C)C)N(C(C)C)C2=O)c1C [Compound 384, 2-t-butylimino-3-isopropyl-5-(2,3-dimethylphenyl)-tetrahydro-1,3,5-thiadiazin-4-one] | 100 |  | 100 |  | 
CN=C1SCN(c2ccc(Cl)cc2)C(=O)N1C [Compound 188, 2-Methylimino-3-methyl-5-(p-chlorophenyl)tetrahydro-1,3,5-thiadiazin-4-one] | 90 | 100 | 100 | 100 | 

SMILES | mortality at 1000 ppm [1] [%] | mortality at 10 ppm [2] [%] | mortality at 400 ppm [3] [%] | mortality at 400 ppm [4] [%] | mortality at 400 ppm [5] [%]
CCC(C)N1C(=O)N(c2cccc(C(F)(F)F)c2)CSC1=NC(C)(C)C (stereo not drawn) [Compound 274] | 100 | 100 | 100 |  | 
CN=C1SCN(c2cccc(C)c2C)C(=O)N1C [Compound 381] | 70 |  | 60 |  | 
Cc1ccccc1N1CSC(=NCc2ccccc2)N(Cc2ccccc2)C1=O [Compound 308] | 100 | 100 | 60 |  | 
CCN1C(=O)N(c2cc(Cl)ccc2Cl)CSC1=NC(C)(C)C [Compound 426] | 100 |  | 70 |  | 
Cc1ccc(N2CSC(=NC(C)C)N(C)C2=O)c(C)c1 [Compound 377, 2-Isopropylimino-3-methyl-5-(2,4-dimethyl-phenyl)-tetrahydro-1,3,5-thiadiazin-4-one] | 100 |  | 100 |  | 
CCC(C)N=C1SCN(c2ccccc2)C(=O)N1CC (stereo not drawn) [Compound 130] |  |  |  | 100 | 
CN=C1SCN(c2ccc(C)cc2C)C(=O)N1C [Compound 376] | 100 |  | 60 |  | 
CC(C)N1C(=O)N(c2cc(Cl)cc(Cl)c2)CSC1=NC(C)(C)CC(C)(C)C [Compound 409] | 100 |  | 60 |  | 
Cc1cccc(C)c1N1CSC(=NC(C)(C)C)N(C(C)C)C1=O [Compound 388, 2-t-butylimino-3-isopropyl-5-(2,6-dimethylphenyl)tetrahydro-1,3,5-thiadiazin-4-one] | 100 |  | 100 |  | 
CCCCCCN1C(=O)N(c2ccccc2C)CSC1=NC(C)C [Compound 304] | 100 |  | 100 |  | 
CCC(C)N1C(=O)N(c2ccc(OC(C)C)cc2)CSC1=NC(C)(C)C (stereo not drawn) [Compound 374, 2-t-butylimino-3-s-butyl-5-(p-isopropoxyphenyl)-tetrahydro-1,3,5-thiadiazin-4-one] | 100 |  | 80 |  | 
CC(C)N=C1SCN(c2cc(Cl)cc(Cl)c2)C(=O)N1C(C)C [Compound 406] | 60 |  | 80 |  | 
CC(C)N1C(=O)N(c2ccc(Cl)cc2)CSC1=NC(C)(C)C [Compound 196, 2-t-Butylimino-3-isopropyl-5-(p-chlorophenyl)-tetrahydro-1,3,5-thiadiazin-4-one] | 100 |  | 100 |  | 90
CC(C)N=C1SCN(c2ccc(Cl)c(Cl)c2)C(=O)N1C(C)C [Compound 415] | 100 |  | 100 |  | 
C=CCN1C(=O)N(c2ccccc2Cl)CSC1=NC(C)C [Compound 242] | 70 |  | 100 |  | 
Cc1ccccc1N1CSC(=NC(C)C)N(C(C)C)C1=O [Compound 301, 2-Isopropylimino-3-isopropyl-5-(o-tolyl)-tetrahydro-1,3,5-thiadiazin-4-one] | 100 | 90 | 100 |  | 
CCN1C(=O)N(c2ccccc2Cl)CSC1=NC(C)(C)C [Compound 241] | 70 |  | 100 |  | 
C=CCN1C(=O)N(c2ccccc2C)CSC1=NC(C)(C)C [Compound 300] | 90 |  | 100 |  | 
Cc1ccc(N2CSC(=NC(C)C)N(Cc3ccccc3)C2=O)cc1 [Compound 320] | 70 | 70 | 100 |  | 
CCC(C)N1C(=O)N(c2cccc(C)c2C)CSC1=NC(C)(C)C (stereo not drawn) [Compound 385] | 100 |  | 100 |  | 
